The source of these data is paper PMC7728344, “Pharmacokinetic Characterization of (Poly)phenolic Metabolites in Human Plasma and Urine after Acute and Short-Term Daily Consumption of Mango Pulp” (Molecules, 2020).

Series [1] in a line: Concentration of (poly)phenolic metabolites in fasting urine at baseline, 24 h after single MP beverage and 15th day after 14-day MP intake (UHPLC-QQQ-MS). Conditions: for concentration at 15 day / concentration at 0 h / concentration at 24 h: human, urine, oral; for concentration at 0 h / concentration at 24 h: 500 g. An excerpt:
The acute trial was a randomized, 3 arm, within-subject crossover study design (Figure 5A). The trial initiated with 3 days of food record collection to assess background (pre-study) dietary intake followed by counseling to adhere to a diet devoid of mango or its parts and relatively low in polyphenol-rich beverages/foods, which was maintained throughout the duration of the trial. […] In general, subjects were encouraged to follow their “usual” diet with the exception of foods/beverages that may interfere with the outcomes of the study. Food intake diaries and, phone call and email reminders helped subjects maintain compliance throughout the study period. After an initial 7-day run-in period on the limited polyphenol diet, subjects were assigned to a randomization sequence providing 1 of 3 study test beverages (recipes provided in Appendix A, Table A3) on three separate days in a random order: MP (500 g), MP (500 g) + VC (100 mg) or VC (100 mg) beverages. On each study day subjects arrived fasted and well hydrated. After standard admission procedures were completed (e.g., review of compliance with dietary requirements for 3 days prior to study day, dinner meal intake, usual sleep patterns), a catheter was placed by a registered nurse in subjects’ non-dominant arm and a fasting/baseline blood sample was collected (0 h). Subjects were provided with a standard breakfast meal 2 h after the study beverages. The breakfast meal was comprised of a buttermilk biscuit with butter and jelly, and scrambled egg white with shredded white cheddar cheese. After the 6 h blood collection, subjects ate a low polyphenol lunch consisting of dry roasted peanuts and fresh peeled cucumber with ranch dressing (Appendix A, Table A3).
Spot urine samples were collected in urine collection cups, immediately placed on ice and then aliquoted into individual cryovials. All the samples were stored at −80 °C until analysis.
A 14-day feeding trial was conducted with the MP only to study the effect of repetitive intake of MP on (poly)phenolic metabolite profiles. Upon completion of the acute trial, subjects were instructed to continue on the low polyphenolic diet for 2 weeks while consuming MP beverages (provided by CNRC) daily in the morning (250 g MP + 50 g water) and evening (250 g MP + 50 g water). On day 14, subjects consumed both beverages (500 g of MP in total) in the morning and reported to the CNRC on the 15th day after an overnight fast to provide a fasting blood and urine sample (Figure 5B). Blood and urine samples were collected as described above and stored at −80 °C until analysis.
The supernatant was collected and filtered through 0.2 µm polypropylene syringe filter before HPLC analysis.
The ESI conditions were the same as those used in the UHPLC-Q-TOF analysis. The quantification of the compounds was conducted by multiple-reaction monitoring (MRM) transitions. Spectra were recorded in both positive- and negative-ion mode with capillary voltage of 4500 V and drying gas flow rate of 9 L/min at 200 °C. The sheath gas temperature and flow rate were 300 °C and 11 L/min, respectively. Standards were optimized for collision energies, fragmentor voltages and MRM transitions using Mass Hunter Optimizer. The MRM transition for metabolites were created based on the results from UHPLC-Q-TOF-MS. Standards for plasma analysis were prepared in blank plasma (charcoal-stripped human plasma obtained from Bioreclamation IVT) for matrix match and for urine analysis were prepared in SMP.
The flow rate was maintained at 0.4 mL/min and the injection volume was 5 μL. The mobile phase consisted of acidified water (0.1% formic acid) (A) and acidified acetonitrile (0.1% formic acid) (B). The gradient for the separation of compounds was as follows: 5 to 5% B from 0 to 1 min; 10% B at 3 min; 15% B at 7 min; 15% B at 9 min; 20% B at 10 min; 20% B at 11 min; 25% B at 12 min; 30% B at 13 min; 30% B at 14 min; 95% B at 15 min; and back to 5% B at 16 min.

A further series in a line: clinical. The class given is in vivo, human. More on the design: AUC0–24h: concentration or dose not given beside the values. As to the method: SPE procedure was conducted to extract and concentrate the (poly)phenolic compounds and their metabolites from the plasma samples. Briefly, plasma samples were thawed on ice and 500 µL plasma was diluted with 1.5 mL of 0.1% formic acid in water with addition of internal standards (2-methylhippuric acid (2 ng/mL), phloridizin (1 ng/mL)) before being loaded on preconditioned SPE cartridges. The cartridges were washed with 0.1% formic acid in water (1 mL) after loading with plasma samples. The elution of the compounds was achieved by 0.1% formic acid in methanol (1 mL) and the eluent was dried under nitrogen gas at room temperature. […] Supernatant was collected in amber HPLC vials before analysis.
The absorption and elimination of 11 major mango metabolites over 24 h was determined after MP, MP + VC, and VC intake. The plasma concentration/area at each time point was determined by the mean of 13 subjects. The time vs. concentration curves and the time vs. area curves were created using GraphPad Prism (version 8.2.1). […] Tmax is the time (h) when Cmax was achieved. Wilcoxon signed-rank test was used for Tmax analysis due to non-normal distribution. Area under the plasma concentration time curve (AUC0−24h, nmol·h/L) was calculated by the linear trapezoidal method using Microsoft Excel 2013, version 15 [63]. […]

The mark [2] stands for this setting: human plasma, 0−24 h, after VC (vitamin C 100 mg) beverage, mean ± standard error, read-out: Cmax.
The mark [3] stands for this setting: human plasma, after VC beverage, mean ± standard error.
Setting [4] is: human plasma, after MP + VC beverage, mean ± standard error.

Like-named read-outs stand apart in the source and are kept apart here.

As usually defined, the Cmax is the maximum level reached in the sampled fluid or tissue.

In the case of `O=C(O)c1cccc(O)c1O` [2,3-Dihydroxybenzoic acid], in series [1], the concentration at 15 day was 0.3 ± 0.1 µM, the concentration at 0 h is 0.3 ± 0.1 µM and the concentration at 24 h was determined as 0.2 ± 0.1 µM.
With `O=C(O)c1cc(O)ccc1O` [2,5-Dihydroxybenzoic acid], in series [1], the concentration at 15 day is 7.9 ± 2.7 µM, the concentration at 0 h was 6.7 ± 1.6 µM and the concentration at 24 h was 4.9 ± 1 µM.
Turning to `O=C(O)c1ccc(O)c(O)c1` [3,4-Dihydroxybenzoic acid], in series [1], the concentration at 15 day was 0.8 ± 0.2 µM, the concentration at 0 h is 2.4 ± 0.7 µM and the concentration at 24 h is 1.1 ± 0.3 µM.
In the same order, the values of `O=C(O)Cc1ccc(O)c(O)c1` [3,4-Dihydroxyphenylacetic acid] are 3.8 ± 0.4 µM, 8 ± 1.6 µM and 4.5 ± 0.8 µM.
For the molecule `O=C(O)CCc1cccc(O)c1` [3-Hydroxyphenylpropanoic acid], in series [1] (in vivo), the “Concentration in fasting urine, Mean ± std Error, 0 h (Fasting)” value was determined as 3.1 ± 0.8 µM; the “Concentration in fasting urine, Mean ± std Error, 15 Days (Fasting)” value worked out at 4.4 ± 1.9 µM; the “Concentration in fasting urine, Mean ± std Error, 24 h (Fasting)” value was found to be 2.0 ± 0.3 µM.
`O=C(O)c1ccc(O)cc1` [4-Hydroxybenzoic acid]: in series [1], the concentration at 15 day is 5.4 ± 0.8 µM, the concentration at 0 h was 6.1 ± 1 µM and the concentration at 24 h was 5.9 ± 0.9 µM.
Turning to `O=C(O)Cc1ccc(O)cc1` [4-Hydroxyphenylacetic acid], in series [1] (in vivo), the “Concentration in fasting urine, Mean ± std Error, 0 h (Fasting)” value was 4.2 ± 1.3 µM; the “Concentration in fasting urine, Mean ± std Error, 15 Days (Fasting)” value came to 3.0 ± 0.9 µM; the “Concentration in fasting urine, Mean ± std Error, 24 h (Fasting)” value worked out at 2.6 ± 0.6 µM.
On to `Cc1ccc(C(=O)NCC(=O)O)cc1` [4-Methylhippuric acid], for which, in series [1] (in vivo), the “Concentration in fasting urine, Mean ± std Error, 0 h (Fasting)” value was found to be 2.0 ± 1.0 µM; the “Concentration in fasting urine, Mean ± std Error, 15 Days (Fasting)” value amounted to 1.2 ± 0.4 µM; the “Concentration in fasting urine, Mean ± std Error, 24 h (Fasting)” value stood at 1.5 ± 0.9 µM.
With `O=C(O)/C=C/c1ccc(O)c(O)c1` [Caffeic acid], the “Concentration in fasting urine, Mean ± std Error, 24 h (Fasting)” value in series [1] (human fasting urine, 24 h after single-time MP beverage intake) was “Not detected”. Further, in series [1], the concentration at 15 day came out at 0.1 µM and the concentration at 0 h turned out to be 0.1 µM.
With `Oc1ccccc1O` [Catechol], in series [1], the concentration at 15 day came to 15.1 ± 4 µM, the concentration at 0 h came out at 18.7 ± 12.2 µM and the concentration at 24 h stood at 15.7 ± 4.1 µM.
On the same counts, the results for `O=Cc1ccc(O)cc1` [Compound 4-Hydroxybenzaldehyde] are 0.2 µM, 0.2 ± 0.1 µM and 0.2 µM.
For the molecule `O=C(O[C@@H]1O[C@H](CO)[C@@H](O)[C@H](O)[C@H]1O)c1cc(O)c(O)c(O)c1` [Compound C2], in the series “clinical” (human, in vivo), the peak level (Cmax) was 0.0134 ± 0.0019 µM and the Tmax was found to be 2.4 ± 0.3 h. This molecule also returned a Cmax in the series “clinical” (human, in vivo, 100 mg) of 0.0021 ± 0.0003 µM. In the series “clinical” (in vivo), the “difference in plasma concentrations/areas after MP + VC beverage compared to MP beverage alone” value is “not statistically significant” and the “time within which absorbed” value lay within 1 to 2 h.
`O=S(=O)(O)Oc1cccc(O)c1O` [Compound C8]: in “clinical” (setting [2]), the Cmax is 2.56 ± 0.894 µM. For the same molecule, the “AUC0–24h” value in the series “clinical” (setting [3]) turned out to be 5.5049 ± 1.7634 µM·h. In addition, in “clinical” (human, in vivo), the “AUC0–24h” value amounted to 18.8521 ± 3.4916 µM·h, the concentration peaked (Cmax) at 10 ± 1.78 µM and the Tmax was found to be 7.3 ± 0.6 h.
As to `O=C(O)[C@H]1O[C@@H](Oc2ccccc2O)[C@H](O)[C@@H](O)[C@@H]1O` [Compound C10, catechol glucuronide], the Cmax in the series “clinical” (human plasma, 0−24 h, after MP (mango pulp 500 g) beverage, mean ± standard error, n = 13, read-out: Cmax) amounted to 0.472 ± 0.27 µM; in the series “clinical” (human plasma, 0−24 h, after MP + VC (mango pulp 500 g + vitamin C 100 mg) beverage, mean ± standard error, read-out: Cmax), 0.186 ± 0.0458 µM; in the series “clinical” (setting [2]), 0.0106 ± 0.0032 µM. Besides, the “AUC0–24h” value was found to be 0.4833 ± 0.108 µM·h in the series “clinical” (setting [4]); 1.8309 ± 1.391 µM·h in “clinical” (human plasma, after MP beverage, linear trapezoidal method, mean ± standard error); 0.0448 ± 0.0051 µM·h in “clinical” (setting [3]). In addition, the Tmax is listed as 8.3 ± 0.4 h in “clinical” (setting [4]) and 8.0 ± 0.6 h in the series “clinical” (human plasma, after MP beverage, mean ± standard error).
For `O=c1c2cc(O)c(O)cc2oc2cc(O)c([C@@H]3O[C@H](CO)[C@@H](O)[C@H](O)[C@H]3O)c(O)c12` [Compound C11, mangiferin], the “time within which cleared from the bloodstream” value in the series “clinical” (after mango intake) was 6 to 8 h. The “content in plasma (as observed from areas) after MP and MP + VC vs. VC beverage alone” value in “clinical” (area vs. time profile 0−24 h) is “significantly higher”. In addition, in the series “clinical” (human plasma after test beverages intake), the “plasma concentration relative to limit of quantitation” value is listed as “below the LOQ”. Also, the Tmax in “clinical” (human, plasma, oral, 500 g, after mango intake, read-out: time to reach maximum concentration/area in plasma) fell in the range of 1 to 2 h. For the same molecule, in the series “clinical” (increase observed, statistical outcome), the “difference in plasma concentrations/areas after MP + VC beverage compared to MP beverage alone” value is given as “not statistically significant”.
`COc1cc(/C=C/C(=O)O)ccc1O` [Ferulic acid]: in series [1] (in vivo), the “Concentration in fasting urine, Mean ± std Error, 0 h (Fasting)” value was 0.5 ± 0.1 µM; the “Concentration in fasting urine, Mean ± std Error, 15 Days (Fasting)” value came to 0.4 ± 0.1 µM; the “Concentration in fasting urine, Mean ± std Error, 24 h (Fasting)” value was found to be 0.4 ± 0.1 µM.
On to `O=C(O)CNC(=O)c1ccccc1` [Hippuric acid], for which, in series [1], the concentration at 15 day was found to be 2020 ± 242 µM and the concentration at 24 h was found to be 3710 ± 582 µM.
Regarding `COC(=O)CNC(=O)c1ccccc1` [Methyl hippurate], in series [1] (in vivo), the “Concentration in fasting urine, Mean ± std Error, 0 h (Fasting)” value was determined as 2.8 ± 2.3 µM; the “Concentration in fasting urine, Mean ± std Error, 15 Days (Fasting)” value stood at 6.3 ± 1.7 µM; the “Concentration in fasting urine, Mean ± std Error, 24 h (Fasting)” value is 7.8 ± 2.1 µM.
With `COc1cc(C(=O)O)cc(OC)c1O` [Syringic acid], in series [1], the concentration at 15 day was determined as 1.7 ± 0.2 µM, the concentration at 0 h was 3.6 ± 0.4 µM and the concentration at 24 h stood at 5.9 ± 0.8 µM.
On the same counts, the results for `COc1cc(C(=O)O)ccc1O` [Vanillic acid] are 4.1 ± 1 µM, 4.9 ± 0.9 µM and 4.4 ± 0.7 µM.
Consider `O=C(O)/C=C/c1cccc(O)c1` [m-Coumaric acid], for which, in series [1] (in vivo), the “Concentration in fasting urine, Mean ± std Error, 0 h (Fasting)” value was 0.8 ± 0.1 µM; the “Concentration in fasting urine, Mean ± std Error, 15 Days (Fasting)” value worked out at 0.7 ± 0.1 µM; the “Concentration in fasting urine, Mean ± std Error, 24 h (Fasting)” value came out at 0.7 ± 0.1 µM.
As to `O=C(O)/C=C/c1ccccc1O` [o-Coumaric acid], in series [1], the concentration at 15 day is 0.5 ± 0.1 µM, the concentration at 0 h was 0.9 ± 0.1 µM and the concentration at 24 h is 0.9 µM.
On the same counts, the results for `O=C(O)C=Cc1ccc(O)cc1` [p-Coumaric acid] are 0.3 µM, 0.5 ± 0.1 µM and 0.4 ± 0.1 µM.
